We go through one compound from PMC5938390, “Tachyplesin Causes Membrane Instability That Kills Multidrug-Resistant Bacteria by Inhibiting the 3-Ketoacyl Carrier Protein Reductase FabG” (Frontiers in Microbiology, 2018).

Data set [1] has as its system E. coli 513. Briefly: MIC against clinical isolate. It is filed as cell-based, Escherichia coli.
In data set [2] the test system is K. pneumoniae 5. Put plainly: MIC against clinical isolate. Format: cell-based, Klebsiella pneumoniae.
For data set [3], the system named is Escherichia coli strain DH5α. The following applies: 37°C, 2 mg/ml, stability judged by MIC against DH5α, tested during the first 6 h. As to the method: (§1) These studies were carried out as we previously reported with slight modifications and briefly introduced as follows ([Liu et al., 2017]). […] Cytotoxicity in different cell lines was assessed using the Cell Proliferation Kit II (XTT) (Roche), and cytotoxicity in hemocytes was evaluated by the increase in the absorbance at 540 nm after peptide incubation. Membrane rupture was indicated by the entrance of the DNA-binding fluorescent dye PI into MDR clinical isolates of P. aeruginosa strain 1409. Membrane translocation of N-terminal FITC-conjugated tachyplesin III (purity ≥ 95%, synthesized by GL Biochem Co., Ltd, Shanghai, China) into MDR clinical isolates of Acinetobacter baumannii strain 1408 were detected by confocal laser-scanning microscopy.
(§2) Tachyplesin III (2 mg/ml) was incubated in either sterile deionized water or mouse serum at 37°C for various lengths of time, aliquots were taken, and MICs against DH5α cells were tested. Stability of the MIC indicates the stability of tachyplesin III.

In data set [4] the test system is E. coli 513. Briefly: Transcriptome analysis (RNA sequencing, FPKM, DESeq). It is filed as cell-based, Escherichia coli. The following applies: Ec; Ta 16 μg/ml, 30 min, 37°C. As to the method:
(§3) The Vitek 32 system (bioMerieux, France) and 16S rDNA sequencing were used to verify the clinical isolates A. baumannii 1408, P. aeruginosa 1409, Klebsiella pneumoniae 5 and E. coli 513, which were grown overnight in Luria-Bertani (LB) medium at 37°C with constant shaking at 220 rpm to reach the middle of their logarithmic growth phase. […] After the addition of 2 volumes of RNAprotect Bacteria Reagent (QIAGEN) to stabilized RNA, samples were vortexed for 5 s, incubated for 5 min at room temperature (15–25°C) and collected by centrifugation at 4°C for 5 min at 4000 g.
(§4) RNA isolation and sequencing were performed by Novogene Bioinformatics Technology Co., Ltd. (Beijing, China) as previously described ([Liu B. et al., 2014]). Clean reads were mapped to the corresponding bacterial genomes using Bowtie 2 software ([Langmead and Salzberg, 2012]). Gene expression was calculated using the FPKM (expected number of fragments per kilobase of transcript sequence per millions of base pairs sequenced) method with HTSeq software (union model) ([Anders et al., 2015]). Differentially expressed genes were selected based on the DESeq R package with Padj values < 0.05 ([Anders and Huber, 2010]). KEGG pathway analysis was performed using KOBAS (2.0), and the corrected p value cut-off was set at 0.05 ([Li et al., 2015]).

The subject of data set [5] is A. baumannii 1408. Briefly: MIC against MDR clinical isolate. It is filed as cell-based, Acinetobacter baumannii.
In data set [6] the test system is Escherichia coli strain DH5α. Put plainly: Stability in sterile deionized water, read out as MIC against DH5α. It is filed as physicochemical. The following applies: 37°C, 2 mg/ml, stability judged by MIC against DH5α. The method, then: as §1, §2
Data set [7] concerns A. baumannii 1408. Put plainly: Transcriptome analysis (RNA sequencing, FPKM, DESeq). Format: cell-based, Acinetobacter baumannii. The following applies: Ab; Ta 16 μg/ml, 30 min, 37°C. As to the method:
as §3, §4

Data set [8] has as its system K. pneumoniae 5. The data set is described as above. It is filed as cell-based, Klebsiella pneumoniae. Conditions: Kp; Ta 16 μg/ml, 30 min, 37°C. As to the method:
as §3, §4

Data set [9] deals with 293FT (human embryonic kidney cell line). Conditions: concentration increased from 100 mg/L to 200 mg/L, XTT. As to the method:
as §1
(§5) Cytotoxicity of tachyplesin III was tested by hemolysis and cell viability assays. (A) Tachyplesin III dissolved in 0.9% saline was added to mouse erythrocytes that were diluted with the same buffer. After 30 min of incubation at 37°C and then centrifugation at 1000 g for 15 min, supernatants were diluted 1:4 with 0.9% saline, and absorbance at 540 nm was tested. With 1% Triton X-100 (v/v) to determine 100% hemolysis and 0.9% saline as the negative control, the hemolysis rate was calculated as [(Absorbancesample^-Absorbancecontrol)/(Absorbance100%^-Absorbancecontrol)] × 100. Cytotoxicity was assessed using the Cell Proliferation Kit II (XTT) (Roche) for (B) L929 (mouse fibroblast cell line), (C) 293FT (human embryonic kidney cell line) and (D) A549 (adenocarcinomic human alveolar basal epithelial cell line) cells. Absorbance [A492-A690 nm] was used to quantify viable cells.

Data set [10] has as its system L929 (mouse fibroblast cell line). Conditions: concentration increased from 50 mg/L to 100 mg/L, XTT. As to the method: as §1, §5

Positions of bridges follow the written chain, without caps; N, C: chain ends. Residues, ends and D or L forms follow the SMILES beside them.

`CC[C@H](C)[C@@H]1NC(=O)CNC(=O)[C@H](CCCNC(=N)N)NC(=O)[C@H](Cc2ccc(O)cc2)NC(=O)[C@@H]2CSSC[C@H](NC1=O)C(=O)N[C@@H](Cc1ccc(O)cc1)C(=O)N[C@@H](CCCNC(=N)N)C(=O)N[C@@H](CCCCN)C(=O)N[C@H](C(=O)N[C@@H](CCCNC(=N)N)C(N)=O)CSSC[C@H](NC(=O)[C@H](Cc1c[nH]c3ccccc13)NC(=O)[C@@H](N)CCCCN)C(=O)N[C@@H](Cc1ccccc1)C(=O)N[C@@H](CCCNC(=N)N)C(=O)N[C@@H](C(C)C)C(=O)N2` [tachyplesin III] (H-KWCFRVCYRGICYRKCR-NH2; disulfide 3-16, 7-12 (inferred); N-terminus and C-terminus assumed): the “16 μg/ml tachyplesin III expressed as multiple of MIC” value in data set [1] is 4 × MIC; in data set [2] it was 1/2; in data set [5], 1 × MIC. Moreover, in data set [3], the “time stable in mouse serum” value was “at least 6 h”. The “Fold change after Ta treatment, gene b1093 (3-ketoacyl-acyl carrier protein reductase)” value in data set [4] was 1.11. For the same compound, the “Fold change after Ta treatment, gene b3846 (3-hydroxyacyl-CoA dehydrogenase)” value in [4] was found to be 2.3. In addition, the “time stable in sterile deionized water” value in [6] was ~48 h. In addition, the “Fold change after Ta treatment, gene A1S_2061 (3-ketoacyl-acyl carrier protein reductase)” value in data set [7] turned out to be 2.89. The “Fold change after Ta treatment, gene KPNJ2_01584 (Enoyl-CoA hydratase)” value in [8] is reported as 2. In addition, the “Fold change after Ta treatment, gene KPNJ2_03426 (3-ketoacyl-acyl carrier protein reductase)” value in data set [8] is recorded as 1.83. Also, the cell viability result in data set [9] is recorded as “Dramatic decreases in viability”; in [10] it was “declined sharply”.
